Laboratory results taken from ChEMBL document CHEMBL3861954, “A novel bis-furan scaffold for transthyretin stabilization and amyloid inhibition” (Eur J Med Chem, 2016).
The source made the active and inactive calls. The calls are words filed in the database; no cut-off is given here.

Tests used:
Transthyretin [1] = target: T1, Transthyretin (Homo sapiens, UniProt P02766); test: (§1) Stabilization of recombinant human wild type TTR expressed in Escherichia coli BL21 (DE3) assessed as inhibition of amyloid beta formation by measuring turbidity preincubated for 30 mins followed by lowering pH from 7.2 to 4.4 measured after 72 hrs by microplate spectrophotometric method
Transthyretin [2] = target: T1, Transthyretin; test: Binding affinity to recombinant human wild type TTR expressed in Escherichia coli BL21 (DE3) assessed as dissociation constants for first binding site of TTR by isothermal titration calorimetric method
Transthyretin [3] = target: T1, Transthyretin; test: Binding affinity to recombinant human wild type TTR expressed in Escherichia coli BL21 (DE3) assessed as dissociation constants for second binding site of TTR by isothermal titration calorimetric method
[4] = Cytotoxicity against human HepG2 cells assessed as decrease in cell viability after 72 hrs by resazurin reduction assay; assay type: toxicity, cell-based; conditions: read-out: ID50
Transthyretin [5] = target: T1, Transthyretin; test: Stabilization of wild type TTR tetramer in human plasma assessed as tetramer to total protein ratio preincubated overnight at 4 degC followed by further incubation at room temperature for 1 hr in presence of 4M urea by isoelectric focusing densitometric analysis
Transthyretin [6] = target: T1, Transthyretin; test: Displacement of [125I]-T4 from wild type TTR in human plasma after 1 hr by PAGE analysis; assay type: cell-free
[7] = system: Transthyretin (Homo sapiens), P02766 [V50M]; test: Stabilization of TTR V30M mutant tetramer in human plasma assessed as tetramer to total protein ratio preincubated overnight at 4 degC followed by further incubation at room temperature for 1 hr in presence of 4M urea by isoelectric focusing densitometric analysis
Transthyretin [8] = target: T1, Transthyretin; test: as §1, with “turbidity at 0.5 to 2 times molar concentration” for “turbidity”

Ratio (Transthyretin [5])	inhibition (Transthyretin [6])	Ratio [7]	Structure (SMILES)	CC50 at 72 h [4] [µM]	other results
–	–	–	Cc1oc(/C=C/c2ccc(Cl)o2)cc1C(=O)O	225	IC50 (Transthyretin [1]): 2.49 µM; Kd (Transthyretin [2]): 0.0039 µM; Kd (Transthyretin [3]): 0.278 µM
0.961	Active	0.481	Cc1c(C(=O)O)coc1/C=C/c1ccc(Cl)o1	181	–
–	–	–	N[C@@H](Cc1cc(I)c(Oc2cc(I)c(O)c(I)c2)c(I)c1)C(=O)O	–	inhibition (Transthyretin [8]): Active
–	Active	–	O=C(O)c1ccc2nc(-c3cc(Cl)cc(Cl)c3)oc2c1	247	–
–	–	–	Oc1c(Cl)cc(-c2cc(Cl)c(O)c(Cl)c2)cc1Cl	60	–
0.768	Active	0.445	O=C(O)c1cc(-c2ccc(F)cc2F)cc(I)c1O	–	–
